Experimental data published in patent US10751329B2, “Treatment of CDKL5 disorders with GSK3β inhibitor tideglusib” (priority 2016, dated 2020).

Assays:
[1] = test system: GSK3β Ser9-phosphorylation in hippocampal neurons from Cdkl5 KO mice; assay: Western blot of P-GSK3β-Ser9 in hippocampal neuronal cultures (DIV10); assay type: cell-based; conditions: chronic treatment 1 μm from DIV2, DIV10
Method: Hippocampal cultures were treated with 1 μm NP-12 starting from DIV2. […] Values are represented as means±SD. *p<0.05 as compared to the untreated Cdkl5^+/Y condition; #p<0.05; ##p<0.01 as compared to the untreated Cdkl5^−/Y samples (Duncan's test after ANOVA).
Hippocampal neurons were prepared from postnatal day 1 (P1) Cdkl5^−/Y and Cdkl5^X/Y male mice. Briefly, hippocampi were dissected from mouse brains under a dissection microscope and treated with trypsin (Sigma Aldrich) for 15 min at 37° C. and DNase (Sigma Aldrich) for 2 min at room temperature before triturating mechanically with fire-polished glass pipette to obtain a single-cell suspension. Approximately 1.2×10^5 cells were plated on coverslips coated with poly-1-lysine in 12-well plates and cultures in Neurobasal medium (Invitrogen) supplemented with B27 (Invitrogen) and glutamine (Invitrogen). Cells were maintained in vitro at 37° C. in a 5% CO2-humified incubator and fixed for immunostaining or Western Blot analysis at 10 days after plating (DIV10). 1 μM NP-12 (Sigma) was administrated on alternate days.
For Western Blot analysis hippocampal neurons at DIV10 were lysed in ice-cold RIPA lysis buffer (50 mM Tris-HCl pH 7.4, 150 mM NaCl, 1% Triton-X100, 0.5% sodium deoxycholate, 0.1% SDS) supplemented with 1 mM PMSF and 1% proteases and phosphatases inhibitor cocktail (Sigma). […]

[2] = test system: hippocampal neurons from Cdkl5 KO mice; assay: Polarization and morphological analysis of MAP2-stained hippocampal neurons; assay type: cell-based; conditions: Cdkl5 KO hippocampal cultures; 1 μM, DIV10
From the text: (C-D) Graphs showing the percentage of polarized neurons (C) and the quantification of the length of the longest axon and dendrite (D) in treated and untreated in hippocampal cultures as in A. (E) Representative images of MAP2-stained hippocampal neurons as in A. Data are expressed as fold difference in comparison to hippocampal neurons from untreated Cdkl5^+/Y mice. Values are represented as means±SD. *p<0.05 as compared to the untreated Cdkl5^+/Y condition; #p<0.05; ##p<0.01 as compared to the untreated Cdkl5^−/Y samples (Duncan's test after ANOVA).
Hippocampal neurons were prepared from postnatal day 1 (P1) Cdkl5^−/Y and Cdkl5^X/Y male mice. […]
To define the degree of polarization of neuronal dendrites, we followed the method described by Horton et al. (FIG. 3) (Horton et al. 2006. Brain Cell. Biol. 35:29-38). Briefly, the measured lengths of dendrites (Lm) in each neuron (including the primary dendrite/axon with all its branches) were ranked highest to lowest. […]
The morphological analysis of hippocampal neurons was focused on two parameters: length of the longest dendrite (D1) and total dendritic length. To achieve this aim, dendritic length of MAP2-positive neurons were measured and quantified by tracing along each neuronal projection using the image analysis system Image Pro Plus (Media Cybernetics, Silver Spring, Md. 20910, USA). […]

[3] = test system: Cdkl5 KO hippocampal neurons; assay: Synaptophysin (SYN) puncta in hippocampal neuronal cultures; assay type: cell-based, mice; conditions: 1 μM every other day, DIV7 to DIV12
Method: Immunostaining for cultured hippocampal neurons were performed with the following procedure. Cells were fixed in 4% PFA+4% sucrose in PBS for 20 min and washed five times in PBS. After permeabilization with PBST cells were incubated overnight at 4° C. o/n with the following antibodies: rabbit polyclonal anti-MAP2 (1:100, Millipore) and SYN (SY38) antibody (1:1000, MAB 5258, Merck Millipore). Sections were then incubated for 2 h at room temperature with a FITC-conjugated goat anti-mouse IgG (1:100; Sigma-Aldrich) and a Cy3-conjugated anti-rabbit IgG (1:100, Jackson Immunoresearch).
To develop the cultures the hippocampal neuronal cells were harvested on postnatal day 1, which was considered division 0 (DIV 0) and cultured in vitro for the remainder of the experiment. […] Results are presented as mean±SD. Data were analyzed with Duncan's test after ANOVA. A probability level of p<0.05 was considered to be statistically significant. *P, 0.05, **P<0.01, ***p<0.001 as compared to the untreated wild-type (Cdkl5+/Y) condition; #p<0.05, ##p<0.01 ###p<0.001 as compared to the untreated Cdkl5 KO (−/Y) samples.

Cdkl5^−/Y mice [4] = assay: Neuronal survival in the dentate gyrus (cleaved caspase-3, DCX immunohistochemistry); assay type: in vivo; conditions: 20 mg/kg s.c. every other day from P25, P45
From the text: (B,C) Examples of sections processed for DCX immunostaining from the dentate gyrus (DG) of untreated and treated Cdkl5^+/Y and Cdkl5^−/Y male mice. (C). […] Scale bar=30 μm; type 2b/3 cells and immature neurons were counted separately. (B) Number of DCX-positive type 2b/3 precursor cells and DCX-positive immature neurons in the DG of mice of untreated (+/Y n=3, −/Y n=3) and treated (+/Y n=3, −/Y n=3) Cdkl5 mice. Values in A represent totals for one DG (mean±SD), data in B are expressed as number of cells/100 μm. *p<0.05; **p<0.01 as compared to the untreated Cdkl5^+/Y condition; ##p<0.01; ###p<0.001 as compared to the untreated Cdkl5^−/Y samples (Duncan's test after ANOVA). Abbreviations: GR, granular layer; SGZ, subgranular zone.
The day of birth was designed as postnatal day (P) zero (P0) and animals with 24 hours of age were considered as one-day-old animals (P1). After weaning, mice were housed three to five per cage and were on a 12-hour (h) light/dark cycle in a temperature-controlled environment with food and water provided ad libitum. […]
One out of 6 sections from the hippocampal formation were used for immunohistochemistry for cleaved caspase-3 (1:200, anti-cleaved caspase-3 rabbit polyclonal Ab, Cell Signaling Technology), doublecortin (1:100, anti-DCX goat polyclonal Ab, Santa Cruz Biotechnology), synaptophysin (1:1000, anti-SYN (SY38) mouse monoclonal Ab, MAB 5258, Merck Millipore) and PSD-95 (1:1000, anti-PSD-95 rabbit polyclonal Ab, Abcam) or double fluorescence immunohistochemistry for synaptophysin, and PSD-95. […]
The total number of positive cells in the DG (cleaved caspase-3, DCX) was estimated by multiplying the total number counted in the series of sampled sections by the inverse of the section sampling fraction (ssf=⅙). The total number of cells of each phenotype was estimated by multiplying the number counted in the series of sections by the inverse of the section sampling fraction (ssf=⅙).

Cdkl5^−/Y mice [5] = assay: Granule cell density, number and layer volume in the dentate gyrus; assay type: in vivo; conditions: 20 mg/kg s.c. every other day from P25, P45
Cdkl5^−/Y mice [6] = assay: Dendritic development of granule cells (DCX and Golgi staining); assay type: in vivo; conditions: 20 mg/kg s.c. every other day from P25, P45
Method: After weaning, mice were housed three to five per cage and were on a 12-hour (h) light/dark cycle in a temperature-controlled environment with food and water provided ad libitum. […] Animals were sacrificed 4 hours after the last injection on P45.

Cdkl5^−/Y mice [7] = assay: Spine density and morphology of Golgi-stained granule cells; assay type: in vivo; conditions: 20 mg/kg s.c. every other day from P25, P45
Method: (B) Images of Golgi-stained dendritic branches of granule cells of untreated and treated Cdkl5^+/Y and Cdkl5^−/Y male mice. […] The day of birth was designed as postnatal day (P) zero (P0) and animals with 24 hours of age were considered as one-day-old animals (P1). After weaning, mice were housed three to five per cage and were on a 12-hour (h) light/dark cycle in a temperature-controlled environment with food and water provided ad libitum. […] Animals were sacrificed 4 hours after the last injection on P45. Brains were Golgi-stained using the FD Rapid Golgi Stain™ Kit (FD NeuroTechnologies, Inc., Columbia, Md., USA). […] In Golgi-stained sections, spines of granule cells were counted using a 100× oil immersion objective lens. Dendritic spine density was measured by manually counting the number of dendritic spines on dendritic segments in the inner and outer half of the molecular layer and expressed as the number of dendritic spines per 20 μm dendritic length. The dendritic spine length was measured by manually drawing a vertical line from the tip of the protrusion to the point where it met the dendritic shaft. The number of spine clusters was counted manually on dendritic segments in the inner and outer half of the molecular layer and expressed as number of spine clusters per 20 μm dendritic length. […] The number of spines belonging to the different group was counted.

Cdkl5^−/Y mice [8] = assay: Hippocampal connectivity: SYN and PSD-95 immunoreactivity and puncta in the molecular layer of the DG; assay type: in vivo; conditions: 20 mg/kg s.c. every other day from P25, P45
Method: After weaning, mice were housed three to five per cage and were on a 12-hour (h) light/dark cycle in a temperature-controlled environment with food and water provided ad libitum. Starting from postnatal day 25 (P25), Cdkl5^+/Y WT and Cdkl5^−/Y KO male mice were treated with vehicle (corn oil; Sigma-Aldrich) or NP-12 (20 mg/kg; Sigma-Aldrich), administered by subcutaneous injection every other day for 20 days. Animals were sacrificed 4 hours after the last injection on P45.

Cdkl5^−/Y mice [9] = assay: Passive avoidance (PA) test; assay type: in vivo; conditions: at the end of treatment
Method: Starting from postnatal day 25 (P25), Cdkl5^+/Y WT and Cdkl5^−/Y KO male mice were treated with vehicle (corn oil; Sigma-Aldrich) or NP-12 (20 mg/kg; Sigma-Aldrich), administered by subcutaneous injection every other day for 20 days. […] For the PA test we used a tilting-floor box (47×18×26 cm) divided into two compartments by a sliding door and a control unit incorporating a shocker (Ugo Basile, Italy). This classic instrument for Pavlovian conditioning exploits the tendency in mice to escape from an illuminated area into a dark one (step-through method). On the first day mice were individually placed into the illuminated compartment. After 60 seconds of habituation period, the connecting door between the chambers opened. In general, mice step quickly through the gate and enter the dark compartment because mice prefer to be in the dark. Upon entering the dark compartment, mice received a brief foot shock (0.7 mA for 3 seconds) and were removed from the chamber after 15 seconds of latency. If the mouse remained in the light compartment for the duration of the trial (358 s), the door closed and the mouse was removed from the light compartment. […] After a 24 hour retention period, mice were placed back into the light compartment and the time it took them to re-enter the dark compartment (latency) was measured up to 358 seconds.

GSK3β-dependent targets = assay: Western blot of GSK3β-dependent targets (β-catenin, P-CRMP2 Thr-514, P-CREB Ser-133) in hippocampus, juvenile and adult mice; assay type: in vivo; conditions: juvenile CDKL5 KO mice (treated from P25, P45)
From the text: Data are expressed as percentage of vehicle treated Cdkl5+/Y mice of the same age. Values are represented as means±SE. *p<0.05, **p<0.01, ***p<0.001 as compared to the vehicle-treated Cdkl5 +/Y condition; #p<0.05; ##p<0.01, ###p<0.001 as compared to the vehicle-treated Cdkl5 −/Y condition (Duncan's test after ANOVA).

CDKL5 KO mice [10] = assay: Hippocampus-dependent learning and memory (Morris water maze, passive avoidance), juvenile and adult mice; assay type: in vivo; conditions: juvenile CDKL5 KO mice (treated from P25, P45)
Method: Starting from postnatal day 25 (P25) for juvenile mice (A) or postnatal day 90 (P90) for adult mice (B), Cdkl5^+/Y and Cdkl5^−/Y male mice were treated with vehicle or NP-12, administered by subcutaneous injection every other day for 20 days. Animals were sacrificed after the last injection (on P45 and P110 for juvenile and adult mice, respectively) or were behaviorally tested. […] Spatial learning and memory (probe test) assessed with the Morris water maze in vehicle treated and NP-12 treated Cdkl5+/Y and −/Y male mice aged P45 (A) and aged P110 (B). Passive avoidance test (PA) on vehicle treated and NP-12 treated Cdkl5+/Y and −/Y male mice aged P45 (C). Graphs show the latency time to enter the dark compartment on the first day and on the second day of the behavioral procedure. Values are represented as means±SE. *p<0.05, **p<0.01, ***p<0.001 as compared to the vehicle-treated Cdkl5+/Y condition; #p<0.05; ##p<0.01, ###p<0.001 as compared to the vehicle-treated Cdkl5−/Y condition (Duncan's test after ANOVA).

CDKL5 KO mice [11] = assay: Neuronal survival and maturation (DCX-positive neurons, dendritic length and branches), juvenile and adult mice; assay type: in vivo; conditions: juvenile CDKL5 KO mice (treated from P25, P45)
Method: (§1) FIGS. 22A-22B show an experimental protocol for evaluating the effect of NP-12 in juvenile and adult mice. Starting from postnatal day 25 (P25) for juvenile mice (A) or postnatal day 90 (P90) for adult mice (B), Cdkl5^+/Y and Cdkl5^−/Y male mice were treated with vehicle or NP-12, administered by subcutaneous injection every other day for 20 days. Animals were sacrificed after the last injection (on P45 and P110 for juvenile and adult mice, respectively) or were behaviorally tested. Abbreviations: +/Y: wildtype male mice; −/Y: Cdkl5 KO male mice; P, postnatal day.
FIGS. 25A-25B show the quantification of the number of DCX-positive postmitotic neurons in the dentate gyrus of vehicle treated and NP-12 treated Cdkl5+/Y and −/Y male mice aged P45 (A) and aged P110 (B). Data are expressed as number of cells/100 μm. Values are represented as means±SE. *p<0.05, **p<0.01, ***p<0.001 as compared to the vehicle-treated Cdkl5+/Y condition; #p<0.05; ##p<0.01, ###p<0.001 as compared to the vehicle-treated Cdkl5 −/Y condition (Duncan's test after ANOVA).
FIGS. 26A-26B show the mean total dendritic length and mean number of dendritic branches of newborn granule cells of vehicle treated and NP-12 treated Cdkl5+/Y and −/Y male mice aged P45 (A) and aged P110 (B).

CDKL5 KO mice [12] = assay: Synapse development (SYN and PSD-95 puncta in the DG), juvenile mice; assay type: in vivo; conditions: juvenile CDKL5 KO mice (treated from P25, P45)
Method: as §1
Values are represented as means±SE. *p<0.05, **p<0.01, ***p<0.001 as compared to the vehicle-treated Cdkl5+/Y condition; #p<0.05; ##p<0.01, ###p<0.001 as compared to the vehicle-treated Cdkl5 −/Y condition (Duncan's test after ANOVA).

GSK3β = assay: Western blot of P-GSK3β-Ser9, GSK3β and β-catenin in hippocampal extracts of treated mice; conditions: 20 mg/kg s.c. every other day from P25, P45
CDKL5 KO mice [13] = conditions: cited from earlier work

In the case of O=c1sn(-c2cccc3ccccc23)c(=O)n1Cc1ccccc1 [NP-12, tideglusib], the “GSK3β Ser9-phosphorylation” value [1] is reported as “completely restores GSK3β Ser9-phosphorylation”, the “axon and dendrite maturation (length of the longest axon and dendrite)” value [2] is reported as “had positive effects on correct axon and dendrite maturation” and the “percentage of polarized neurons” value [2] is reported as “efficiently ameliorated the percentage of polarized neurons”. For the same compound, the “number of synaptophysin (SYN) puncta” value [3] was “completely restore”, the “cell death: cleaved caspase-3 positive cells in the dentate gyrus” value (Cdkl5^−/Y mice [4]; Cdkl5 KO male mice) was “completely restored” and the “survival rate of the postmitotic granule cells” value (Cdkl5^−/Y mice [4]; Cdkl5^−/Y mice) was “restores the survival rate of the postmitotic granule cells”. For the same compound, the “number of DCX-positive immature neurons in the dentate gyrus” value (Cdkl5^−/Y mice [4]; treated mice vs untreated Cdkl5^+/Y) was “underwent an increase in the number of DCX-positive neurons, that became similar to that of untreated Cdkl5^+/Y littermates”, the “granule cell density in the dentate gyrus” value (Cdkl5^−/Y mice [5]) was “fully restored” and the “total granule cell number in the dentate gyrus” value (Cdkl5^−/Y mice [5]) was “fully restored”. For the same compound, the “volume of the granule cell layer” value (Cdkl5^−/Y mice [5]) was “without affecting the volume of the granule cell layer”, the “dendritic length of newborn (DCX-positive) granule cells” value (Cdkl5^−/Y mice [6]) was “increase in both parameters that became similar or even greater than those of untreated Cdkl5^+/Y mice” and the “dendritic length of older Golgi-stained granule cells” value (Cdkl5^−/Y mice [6]) was “completely rescued”. For the same compound, the “number of dendritic branches of newborn (DCX-positive) granule cells” value (Cdkl5^−/Y mice [6]) was “increase in both parameters that became similar or even greater than those of untreated Cdkl5^+/Y mice”, the “number of dendritic segments of older Golgi-stained granule cells” value (Cdkl5^−/Y mice [6]) was “completely rescued” and the “dendritic spine density of granule cells” value (Cdkl5^−/Y mice [7]) was “no effect on spine density”. For the same compound, the “spine shape morphology (percentage of immature and mature spines)” value (Cdkl5^−/Y mice [7]; Cdkl5 KO mice) was “completely restored”, the “density of PSD-95 puncta in the molecular layer of the DG” value (Cdkl5^−/Y mice [8]) was “completely restored” and the “density of SYN puncta in the molecular layer of the DG” value (Cdkl5^−/Y mice [8]) was “completely restored”. The “optical density of PSD-95 immunoreactivity in the molecular layer of the DG” value (Cdkl5^−/Y mice [8]) was “fully rescued”, the “optical density of SYN immunoreactivity in the molecular layer of the DG” value (Cdkl5^−/Y mice [8]) was “fully rescued” and the “latency time to enter the dark compartment, second day (test)” value (Cdkl5^−/Y mice [9]; Cdkl5^−/Y mice, 24 hours after shock) was “underwent an increase and there was no significant difference in comparison to untreated Cdkl5^+/Y mice”. The “latency time to enter the dark compartment, first day” value (Cdkl5^−/Y mice [9]; all groups) was “all groups showed similar step-through latencies”, the “GSK3β-dependent targets (β-catenin, P-CRMP2 Thr-514, P-CREB Ser-133)” value (GSK3β-dependent targets) was “restores GSK3β-dependent targets in juvenile” and the “hippocampus-dependent behavior defects (learning and memory)” value (CDKL5 KO mice [10]) was “corrects hippocampus-dependent behavior defects in juvenile”. For the same compound, the “neuronal survival and maturation” value (CDKL5 KO mice [11]) was “restores neuronal survival and maturation in juvenile”, the “synapse development (SYN and PSD-95 puncta)” value (CDKL5 KO mice [12]) was “restores synapse development in juvenile CDKL5 KO mice” and the “total GSK3β levels in hippocampus” value (GSK3β) was “no effect”. The “Ser9-phosphorylated GSK3β levels in hippocampus” value (GSK3β; Cdkl5^−/Y male mice) was “increased Ser9-phosphorylated GSK3β levels in Cdkl5^−/Y mice that became even higher to those of the untreated Cdkl5^+/Y counterparts” and the “β-catenin levels in hippocampus” value (GSK3β; Cdkl5^−/Y male mice) was “complete recovery of β-catenin levels”.

For Cn1cc(C2=C(c3ccc(Cl)cc3Cl)C(=O)NC2=O)c2ccccc21 [SB216763], the hippocampal development (CDKL5 KO mice [13]) is given as “restore hippocampal development by restoring dendritic development, spine morphology and distribution, survival of newborn granule cells, and connectivity”.
